For 47 molecules, IC50 results are on record in patent publication US12410187B2, “Fused tricyclic compounds useful as anticancer agents” (ASTRAZENECA AB, priority 2019, dated 2025).

One test deals with T1, KRasG12C (Homo sapiens, UniProt P01116, G12C).
T1 construct: biotin (biotinylated); made in house
T1 sequence (P01116 1-188 isoform P01116-2 G12C): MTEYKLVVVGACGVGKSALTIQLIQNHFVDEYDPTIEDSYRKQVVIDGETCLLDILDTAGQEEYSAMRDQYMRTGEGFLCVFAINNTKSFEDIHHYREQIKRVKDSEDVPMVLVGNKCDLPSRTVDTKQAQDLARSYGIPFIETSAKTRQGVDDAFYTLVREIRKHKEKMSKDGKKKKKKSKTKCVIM
In words: KRasG12C functional assay (HTRF/FRET nucleotide exchange and Raf RBD binding). The test is classed as biochemical. The note with it: GDP loaded biotinylated KRasG12C, samples incubated for 4 hrs, FRET readout; single experiment or average of two or more; read-out: KRasG12C functional assay IC50. The method, then:
All enzyme and substrate solutions were prepared in assay buffer containing 20 mM HEPES (pH 7.5), 5 mM MgCl2, 150 mM NaCl, and 0.01% Tween 20. […] In a separate mix 20 nM GST-Raf Ras binding domain (GST-Raf RBD, purified in house) and 4 μg/ml anti-GST XL665 antibody (Cisbio) was prepared in assay buffer containing 50 mM Potassium Fluoride and 0.05 mg/ml BSA and equilibrated for 4 hours before adding 0.6 μM Guanosine 5′-[γ-thio]triphosphate (GTPγS, Sigma) and 0.08 μM SOS (purified in house). 5 μl of the GST-RAF RBD mix was then dispensed into each well of the assay plate. […] This is detected simultaneously via the specific binding interaction between active GTPγS KRas^G12C with GST-Raf RBD which brings the europium and XL665 into close proximity enabling an increased FRET signal to be detected on a Pherastar (BMG) plate reader equipped with the HTRF filter module. […] IC50 values were calculated from normalised dose-response response FRET data curve fitted in Genedata screener (Basel, Switzerland).
In the case of `C=CC(=O)N1CCN2C(=O)c3ccc(-c4c(C)ccc5[nH]ncc45)c(Cl)c3NC[C@H]2C1` (single isomer, unassigned) [Example 33], the IC50 came out at 998 nM.

`C=CC(=O)N1CCN2Cc3cc(F)c(-c4c(O)cccc4Cl)c(Cl)c3OC[C@H]2C1` (single isomer, unassigned) [Example 34]: the half-maximal inhibitory concentration (IC50) stood at 64900 nM.

Regarding `C=CC(=O)N1CCN2C(=O)c3ccc(-c4c(C)ccc5[nH]ncc45)c(Cl)c3N(C)C[C@H]2C1` (single isomer, unassigned) [Example 36], the IC50 amounted to 98200 nM.

For `C=CC(=O)N1CCN2C(=O)c3ccc(-c4c(C)ccc5[nH]ncc45)c(Cl)c3N(C)C[C@H]2C1` (single isomer, unassigned) [Example 37], the IC50 turned out to be 273 nM.

Regarding `C=CC(=O)N1CCN2Cc3cc(F)c(-c4c(O)ccc(F)c4F)c(Cl)c3OC[C@H]2C1` (single isomer, unassigned) [Example 38], the IC50 was 40100 nM.

Regarding `C=CC(=O)N1CCN2Cc3cc(F)c(-c4c(O)ccc(F)c4F)c(Cl)c3OC[C@H]2C1` (single isomer, unassigned) [Example 39], the IC50 was 123 nM.

For `C=CC(=O)N1CCN2Cc3cc(C#N)c(-c4c(C)cccc4O)c(Cl)c3OC[C@H]2C1` (single isomer, unassigned) [Example 40], the IC50 was determined as 4620 nM.

In the case of `C=CC(=O)N1CCN2Cc3cc(C#N)c(-c4c(C)cccc4O)c(Cl)c3OC[C@H]2C1` (single isomer, unassigned) [Example 41], the IC50 was 180 nM.

`C=CC(=O)N1CCN2Cc3cc(F)c(-c4c(F)cccc4CO)c(F)c3OC[C@H]2C1` (single isomer, unassigned) [Example 46]: the half-inhibitory concentration (IC50) was 99500 nM.

For `C=CC(=O)N1CCN2Cc3cc(F)c(-c4c(F)cccc4CO)c(F)c3OC[C@H]2C1` (single isomer, unassigned) [Example 47], the IC50 turned out to be 1720 nM.

For `C=CC(=O)N1CCN2Cc3cc(F)c(-c4c(O)cccc4C(F)(F)F)c(F)c3OC[C@H]2C1` (single isomer, unassigned) [Example 48], the IC50 is 42700 nM.

Consider `C=CC(=O)N1CCN2Cc3cc(F)c(-c4c(O)cccc4CC)c(F)c3OC[C@H]2C1` (single isomer, unassigned) [Example 50], for which the IC50 amounted to 99300 nM.

As to `C=CC(=O)N1CCN2Cc3cc(F)c(-c4c(O)cccc4CC)c(F)c3OC[C@H]2C1` (single isomer, unassigned) [Example 51], the IC50 stood at 542 nM.

`C=CC(=O)N1CCN2Cc3cc(F)c(-c4c(O)cccc4C(F)F)c(F)c3OC[C@H]2C1` (single isomer, unassigned) [Example 52]: the IC50 is > 100000 nM.

On to `C=CC(=O)N1CCN2Cc3cc(C#N)c(-c4c(O)cccc4Cl)c(Cl)c3OC[C@H]2C1` (single isomer, unassigned) [Example 56], for which the IC50 was found to be 1700 nM.

`C=CC(=O)N1CCN2Cc3cc(C#N)c(-c4c(O)cccc4Cl)c(Cl)c3OC[C@H]2C1` (single isomer, unassigned) [Example 57]: the IC50 is 31 nM.

Turning to `C=CC(=O)N1CCN2Cc3cc(F)c(-c4c(O)cccc4Br)c(F)c3OC[C@H]2C1` (single isomer, unassigned) [Example 58], the IC50 was 11800 nM.

Take `C=CC(=O)N1CCN2Cc3cc(Cl)c(-c4c(C)cccc4O)c(F)c3OC[C@H]2C1` (single isomer, unassigned) [Example 60]: the IC50 is 15900 nM.

Regarding `C#Cc1c2c(cc(Cl)c1-c1c(C)cccc1O)CN1CCN(C(=O)C=C)C[C@@H]1CO2` (single isomer, unassigned) [Example 62], the IC50 worked out at 15700 nM.

Take `C#Cc1c2c(cc(Cl)c1-c1c(C)cccc1O)CN1CCN(C(=O)C=C)C[C@@H]1CO2` (single isomer, unassigned) [Example 63]: the IC50 worked out at 120 nM.

Regarding `C#Cc1c2c(cc(F)c1-c1c(C)cccc1O)CN1CCN(C(=O)C=C)C[C@@H]1CO2` (single isomer, unassigned) [Example 64], the IC50 worked out at 37100 nM.

`C=CC(=O)N1CCN2Cc3c(c(Cl)c(-c4c(O)cccc4F)n(C)c3=O)OC[C@H]2C1` (single isomer, unassigned) [Example 66]: the IC50 was 21000 nM.

With `C=CC(=O)N1CCN2Cc3c(c(Cl)c(-c4c(O)cccc4F)n(C)c3=O)OC[C@H]2C1` (single isomer, unassigned) [Example 67], the IC50 came to 810 nM.

Regarding `C=CC(=O)N1CCN2Cc3c(c(Cl)c(-c4c(O)cccc4F)n4cnnc34)OC[C@H]2C1` (single isomer, unassigned) [Example 70], the IC50 came to 19000 nM.

For the molecule `C=CC(=O)N1CCN2Cc3c(c(Cl)c(-c4c(O)cccc4F)n4cnnc34)OC[C@H]2C1` (single isomer, unassigned) [Example 71], the IC50 came to 539 nM.

For `C=CC(=O)N1CCN2Cc3c(c(Cl)c(-c4c(O)cccc4F)c4cnn(C)c34)OC[C@H]2C1` (single isomer, unassigned) [Example 72], the IC50 stood at 133 nM.

With `C=CC(=O)N1CCN2Cc3c(c(Cl)c(-c4c(O)cccc4F)c4cnn(C)c34)OC[C@H]2C1` (single isomer, unassigned) [Example 73], the IC50 stood at 23000 nM.

On to `C=CC(=O)N1CCN2Cc3c(c(Cl)c(-c4c(O)cccc4F)c4cn(C)nc34)OC[C@H]2C1` (single isomer, unassigned) [Example 74], for which the IC50 turned out to be 135 nM.

In the case of `C=CC(=O)N1CCN2Cc3c(c(Cl)c(-c4c(O)cccc4F)c4cn(C)nc34)OC[C@H]2C1` (single isomer, unassigned) [Example 75], the IC50 came out at 50800 nM.

Turning to `C=CC(=O)N1CCN2Cc3c(c(Cl)c(-c4c(O)cccc4Cl)c4ncn(C)c34)OC[C@H]2C1` (single isomer, unassigned) [Example 82], the IC50 stood at 61 nM.

As for `C#Cc1nc2c(c(Cl)c1-c1c(O)cccc1Cl)OC[C@@H]1CN(C(=O)C=C)CCN1C2` (single isomer, unassigned) [Example 88], the IC50 was 13 nM.

Regarding `C=CC(=O)N1CCN2Cc3cc(OC(F)F)c(-c4c(O)cccc4Cl)c(Cl)c3OC[C@H]2C1` (single isomer, unassigned) [Example 98], the IC50 was 11 nM.

`C=CC(=O)N1CCN2Cc3cc(C#CCN(C)C)c(-c4c(O)cccc4Cl)c(F)c3OC[C@H]2C1` (single isomer, unassigned) [Example 102]: the IC50 worked out at 28 nM.

Take `C=CC(=O)N1CCN2Cc3cc(OCc4ccncc4)c(-c4c(O)cccc4Cl)c(F)c3OC[C@H]2C1` (single isomer, unassigned) [Example 104]: the IC50 was determined as 27 nM.

As for `C=CC(=O)N1CCN2Cc3cc(OCCOC)c(-c4c(O)cccc4Cl)c(Cl)c3OC[C@H]2C1` (single isomer, unassigned) [Example 106], the IC50 amounted to 43 nM.

As to `C=CC(=O)N1CCN2Cc3cc(OCCN4CCCCC4)c(-c4c(O)cccc4Cl)c(F)c3OC[C@H]2C1` (single isomer, unassigned) [Example 108], the IC50 came to 64 nM.

As to `C=CC(=O)N1CCN2Cc3c(OCCN(C)C)cc(-c4c(O)cccc4Cl)c(F)c3OC[C@H]2C1` (single isomer, unassigned) [Example 115], the IC50 is 55 nM.

As for `C=CC(=O)N1CCN2Cc3c(OCCN(C)C)cc(-c4c(O)cccc4Cl)c(F)c3OC[C@H]2C1` (single isomer, unassigned) [Example 116], the IC50 was determined as 53 nM.

As to `C=CC(=O)N1CCN2Cc3c(C#CC)nc(-c4c(O)cccc4Cl)c(Cl)c3OC[C@H]2C1` (single isomer, unassigned) [Example 118], the IC50 is 30 nM.

`C#Cc1nc(-c2c(O)cccc2Cl)c(Cl)c2c1CN1CCN(C(=O)C=C)C[C@@H]1CO2` (single isomer, unassigned) [Example 120]: the IC50 is 51 nM.

`C=CC(=O)N1CCN2Cc3c(OC)cc(-c4c(O)cccc4F)c(Cl)c3OC[C@H]2C1` [Example 5, 1-[(12aR)-10-Chloro-9-(2-fluoro-6-hydroxyphenyl)-7-methoxy-3,4,12,12a-tetrahydro-6H-pyrazino[2,1-c][1,4]benzoxazepin-2(1H)-yl]prop-2-en-1-one]: the IC50 stood at 157 nM.

The same test, now with this note: KRasG12C functional assay IC50, GDP loaded biotinylated KRasG12C, samples incubated for 4 hrs, FRET readout; single experiment or average of two or more.
As to `C=CC(=O)N1CCN2Cc3cc(F)c(-c4c(C)cccc4O)c(F)c3OC[C@H]2C1` (single isomer, unassigned) [Example 44], the IC50 was > 100000 nM.

`C=CC(=O)N1CCN2Cc3cc(C#N)c(-c4c(O)cccc4Cl)c(F)c3OC[C@H]2C1` (single isomer, unassigned) [Example 54] yielded an IC50 of 339 nM.

For the molecule `C=CC(=O)N1CCN2Cc3cc(C#N)c(-c4c(O)cccc4Cl)c(F)c3OC[C@H]2C1` (single isomer, unassigned) [Example 55], the IC50 was determined as 16 nM.

Molecule `C#Cc1cc2c(c(F)c1-c1c(O)cccc1Cl)OC[C@H]1CN(C(=O)C=C)CCN1C2` (single isomer, unassigned) [Example 77] had an IC50 of 937 nM.

Take `C=CC(=O)N1CCN2Cc3cc(OC(F)F)c(-c4c(O)cccc4Cl)c(F)c3OC[C@H]2C1` (single isomer, unassigned) [Example 94]: the IC50 is 14 nM.

`C=CC(=O)N1CCN2Cc3cc(OC4CC4)c(-c4c(O)cccc4Cl)c(F)c3OC[C@H]2C1` (single isomer, unassigned) [Example 100]: the IC50 stood at 80 nM.

As usually defined, the IC50 is the concentration that gives 50% inhibition.
